The test system of one assay is ATF4 levels in HEK293. Nature of the assay: HEK293 cell-based ATF4 western blot. The following applies: Homo sapiens; HEK293, tunicamycin 1 μM. The procedure: Cell based assays HEK293 cells were plated at 1×10^6 cells per well and treated with HC-5404 30 minutes prior to addition of tunicamycin (1 μM) to induce ER stress. Cells were harvested 4 hours following tunicamycin addition and lysed for western blotting in RIPA buffer supplemented with protease and phosphatase inhibitors. Total protein concentrations were determined by BCA and […] of protein were loaded on to SDS-PAGE gels, transferred to nitrocellulose and probed with a primary antibody against phosphorylated T-982 of human PERK or total ATF4 followed by incubation with an infrared labelled secondary antibody. Blots were imaged on a LiCor imager and normalized to total protein in the wells using Revert™ stain. Band intensities were quantified and normalized to DMSO treated samples. Normalized band intensities were plotted as percent inhibition against 10-point; 3-fold dilution series of HC-5404. IC50 values were calculated using 4-parameter logistical fitting in XLFit.
The cell-based activity of HC-5404 was evaluated using HEK293 treated with tunicamycin (Tm; 1 μM) to induce ER stress.
(In general: Immunoblotting shows a protein as a band on a membrane.)

Another assay concerns 786-O RCC xenograft. Nature of the assay: 786-O RCC xenograft tumor growth. It is filed as in vivo, mouse. As for the experimental part: (§1) Xenograft RCC models were generated as follows: Female NOD.SCID mice (6-8 weeks of age) were injected with A498 RCC cells (5×10^6 cells/mouse), female Balb/c Nude mice (6-8 weeks old) were implanted with 786-O RCC cells (5×10^6 cells/mouse) or Caki-1 RCC cells (6×10^6 cells/mouse), female Athymic Nude-Foxn1nu mice (7-8 weeks of age) were implanted with MFE280 endometrial cells (10×10^6 cells/mouse). Cells were implanted into the flank of animals.
(§2) Once tumor tumors reached volume of typically 150-250 mm^3, animals were randomized by tumor volume into the treatment groups of 8 or 10 animals per group. In the single animal trial with RCC PDX models, only one animal per group was enrolled.
Body weight and tumor volume were measured twice weekly. Tumor volume was calculated using the formula [tumor volume (mm^3)=π/6×length×width^2] and plotted as means+SEM. The percentage of tumor growth inhibition was calculated at the end of the study using the formula: […], if ΔT>0, ΔT, mean tumor volume of the drug-treated group on the observation day of the study—mean tumor volume of the drug-treated group on initial day of dosing; ΔC, mean tumor volume of the control group on the observation day of the study—mean tumor volume of the control group on initial day of dosing. Regression was calculated using the formula=100×ΔT/Tinitial, if ΔT<0. Animals with >50% regressions were partial responders. Animals with tumor volume of 0 (no measurable tumor) were considered as complete responders, and animals with <50% tumor regression and 30% growth over the baseline were considered as stable disease. Animals with tumors>30% increase over the baseline were considered progressive disease. The % change in body weight was calculated by the formula (body weight on observation day−body weight on initial day)/body weight on initial day×100%.

Assay [1] relates to ATF4 targets in gastric PDX (GAO 114-R19P6). Nature of the assay: ATF4 target proteins in gastric PDX. It is filed as in vivo, mouse. The following applies: 7 days, 1 h post-dose (FIG. 81, 82). The procedure:
Samples were put in 500 μL of Novex lysis buffer consisting of 2× Novex Tris-Glycine SDS sample buffer (ThermoFisher LC2676), 1× Phosphatase Inhibitor Cocktail III (Sigma P0044), 1× PhosphataseArrest I (Gbioscience 113P-D), 1×2-mercaptoethanol (Gibco 21985023), 1× Benzonase (EMD Millipore Corp 70746-3), and 1× Protease inhibitor cocktail tablet (Roche/Sigma 11836170001). Samples were homogenized with the Polytron and heated for 10 min at 95 °C. They were then centrifuged at max speed for 10 min and the supernatant was transferred. Protein concentrations of samples were measured using the Pierce 660 nm Protein assay kit (Thermo Scientific 22660) according to the manufacturer's instructions.
Western Blot analysis was performed on the SimpleWestern high-throughput protein analysis platform (ProteinSimple 004-650) according to manufacturer's protocol using a 12-230 kDA Separation Module (ProteinSimple SM-W004) and Total Protein Detection Module (ProteinSimple DM-TP01). Antibodies used were: (Add info for other antibodies used) pPERK (Lilly; 1:50) and PERK (Cell Signaling Technology 5683; 1:200). All protein analytes were normalized to total protein loaded on capillary.
Gastric PDX model (GAO 114-R19P6) PD arm sampled after 7 days, 1 h post-dose.

The target of a further assay is T1, PERK (Homo sapiens, UniProt Q9NZJ5).
T1 construct: purchased Carna
Nature of the assay: cell-free FRET-based biochemical assay, PERK. As to conditions: role: inhibitor; ratio of IC50 values. As for the experimental part:
The potency of HC-5404 against four ISR kinases was evaluated in cell-free FRET-based biochemical assays, following manufacturer's instructions (Carna).
Cell-free biochemical assays were used to evaluate the selectivity of HC-5404 for PERK, relative to the ISR kinases GCN2, HRI, and PKR. In these assays, recombinant target kinases were incubated with […] and an eIF2α-based fluorogenic substrate, and kinase activity was evaluated in presence of HC-5404 across a concentration series.

The test system of assay [2] is MFE280 endometrial cancer model. Nature of the assay: MFE280 endometrial xenograft tumor growth. It is filed as in vivo, mouse. The following applies: single agent: HC-5404 30 mg/kg PO BID or lenvatinib 10 mg/kg QD (FIG. 77). As for the experimental part:
as §1, §2
Body weight and tumor volume were measured twice weekly. Tumor volume was calculated using the formula [tumor volume (mm^3)=π/6×length×width^2] and plotted as means+SEM. The percentage of tumor growth inhibition was calculated at the end of the study using the formula: 100−[1−(ΔT/ΔC)], if ΔT>0, ΔT, mean tumor volume of the drug-treated group on the observation day of the study—mean tumor volume of the drug-treated group on initial day of dosing; ΔC, mean tumor volume of the control group on the observation day of the study—mean tumor volume of the control group on initial day of dosing. Regression was calculated using the formula=100×ΔT/Tinitial, if ΔT<0. […]

SMILES strings stand for the structures. Bounds are passed on as bounds.

T1 sequence (Q9NZJ5 30-1116): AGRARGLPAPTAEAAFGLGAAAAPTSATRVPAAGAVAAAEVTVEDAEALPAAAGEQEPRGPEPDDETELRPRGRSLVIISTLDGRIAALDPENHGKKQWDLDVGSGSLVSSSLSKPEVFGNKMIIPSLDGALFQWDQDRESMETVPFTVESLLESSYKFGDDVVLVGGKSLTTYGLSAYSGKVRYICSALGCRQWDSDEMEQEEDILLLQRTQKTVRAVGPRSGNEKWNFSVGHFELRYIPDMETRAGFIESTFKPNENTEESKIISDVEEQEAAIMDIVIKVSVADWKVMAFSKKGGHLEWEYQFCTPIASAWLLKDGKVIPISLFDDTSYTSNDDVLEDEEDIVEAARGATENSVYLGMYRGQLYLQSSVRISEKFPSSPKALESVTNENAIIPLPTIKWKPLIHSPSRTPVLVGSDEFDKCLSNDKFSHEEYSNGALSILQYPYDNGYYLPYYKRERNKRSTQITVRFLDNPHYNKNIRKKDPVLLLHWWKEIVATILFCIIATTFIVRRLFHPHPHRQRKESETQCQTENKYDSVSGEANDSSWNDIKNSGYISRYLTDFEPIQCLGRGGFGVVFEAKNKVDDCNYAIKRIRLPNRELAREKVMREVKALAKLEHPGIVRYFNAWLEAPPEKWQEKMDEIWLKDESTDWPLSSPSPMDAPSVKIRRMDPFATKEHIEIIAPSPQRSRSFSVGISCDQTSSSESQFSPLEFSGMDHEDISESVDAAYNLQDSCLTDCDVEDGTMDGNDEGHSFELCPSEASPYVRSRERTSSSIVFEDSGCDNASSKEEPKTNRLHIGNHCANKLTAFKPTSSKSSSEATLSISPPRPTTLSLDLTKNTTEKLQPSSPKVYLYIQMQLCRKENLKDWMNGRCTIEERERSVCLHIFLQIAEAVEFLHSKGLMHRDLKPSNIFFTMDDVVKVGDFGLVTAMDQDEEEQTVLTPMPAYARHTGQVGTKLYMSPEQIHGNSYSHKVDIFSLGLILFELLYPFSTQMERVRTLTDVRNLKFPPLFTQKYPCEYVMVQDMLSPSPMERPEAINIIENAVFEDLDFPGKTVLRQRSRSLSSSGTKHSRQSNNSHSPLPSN

The compound `Cc1cc(NC(=O)[C@H](O)c2cc(F)cc(F)c2)ccc1-c1cnc(N)c(C(=O)NC(C)C)c1` [HC-5404, (R)-2-amino-5-(4-(2-(3,5-difluorophenyl)-2-hydroxyacetamido)-2-methylphenyl)-N-isopropylnicotinamide] showed a 50% inhibitory concentration (IC50) in the assay on ATF4 levels in HEK293 of 115 nM. The compound further registered a tumor growth inhibition in the assay with 786-O RCC xenograft (30 mg/kg PO BID, 28 days (FIG. 22)) of 48%. Besides, the “difference between BID and QD dosing” value in the assay on 786-O RCC xenograft (3, 10, 30 mg/kg BID vs 6, 20, 60 mg/kg QD, PO) is listed as “not statistically significant”. For the same compound, the TGI result with 786-O RCC xenograft (10 and 30 mg/kg PO BID tested, 28 days (FIG. 36)) is on record as “approximately 52%”. Further, the TGI % in the assay with 786-O RCC xenograft (HC-5404 30 mg/kg PO BID, cabozantinib combination study (FIG. 52)) is on record as ~ 61%; in assay [2], ~ 37%. For the same compound, the “dose dependence of antitumor efficacy” value in the assay with 786-O RCC xenograft (HC-5404 3, 10 and 30 mg/kg PO BID) is given as “trend for dose-dependent antitumor efficacy”. Besides, in the assay with 786-O RCC xenograft (single agent, efficacy arms (FIG. 28)), the “effect on tumor volume” value was “modest effects on tumor volume”. Besides, the ATF4 target genes result in assay [1] was “induces ATF4 target genes, including ASNS, PSAT1 and other enzymes involved in amino acid metabolism”. On PERK, the “biochemical selectivity for PERK over GCN2, HRI and PKR” value is listed as more than 2000 fold.

Broadly, the IC50 is the concentration needed to halve the response being measured. The low end stands for inhibition by little substance, the high end for a need for much substance.
